The NIST ThermoML archive (doi:10.1016/j.jct.2011.05.018)
± gives the expanded uncertainty stated by the source.

Assay: xn = mol fraction of the nth substance listed
Settings: 101 kPa, Liquid, x2 = 0; for viscosity: Capillary tube (Ostwald / Ubbelohde) method; for speed of sound: Pulse-echo method; for mass density: Pycnometric method

| Structure (SMILES) | viscosity (303.15 K) | speed of sound (303.15 K) | mass density (303.15 K) | viscosity (308.15 K) | speed of sound (308.15 K) | mass density (308.15 K) | viscosity (313.15 K) | speed of sound (313.15 K) | mass density (313.15 K) | viscosity (318.15 K) | speed of sound (318.15 K) | mass density (318.15 K) |
| --- | --- | --- | --- | --- | --- | --- | --- | --- | --- | --- | --- | --- |
| Cc1ccccc1O [2-methylphenol] + COc1ccc(C=O)cc1 | 7.479 ± 0.053 mPa·s | 1485.3 ± 1.6 m/s | 1036.2 ± 10 kg/m3 | 5.963 ± 0.043 mPa·s | 1466.8 ± 1.6 m/s | 1031 ± 10 kg/m3 | 4.238 ± 0.032 mPa·s | 1452.1 ± 1.6 m/s | 1026 ± 10 kg/m3 | 2.215 ± 0.019 mPa·s | 1437.1 ± 1.6 m/s | 1021.1 ± 10 kg/m3 |
| Cc1cccc(O)c1 [3-methylphenol] + COc1ccc(C=O)cc1 | 8.929 ± 0.062 mPa·s | 1464.2 ± 1.6 m/s | 1025.8 ± 10 kg/m3 | 7.412 ± 0.052 mPa·s | 1449.3 ± 1.6 m/s | 1021.5 ± 10 kg/m3 | 6.116 ± 0.044 mPa·s | 1436.3 ± 1.6 m/s | 1017 ± 10 kg/m3 | 5.019 ± 0.037 mPa·s | 1424.2 ± 1.6 m/s | 1013.5 ± 10 kg/m3 |
